In PubChem BioAssay AID192 (DTP/NCI, 2004):
Where “and” joins values, the source holds several entries; their conditions need not be identical. Identical values can stand only once. Inconclusive results and toxic doses are left out.

Test system: BDF1 mice, B16 melanoma ip, median survival T/C
Assay: NCI In Vivo Anticancer Drug Screen. Data for tumor model B16 Melanoma (intraperitoneal) in B6D2F1 (BDF1) mice
Settings: endpoint: median survival time, higher = longer survival
In short: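 The ratio T/C compares compound-treated mice with vehicle-treated controls, using survival or tumor size as the endpoint in a transplantable tumor model.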

[1] = dose: 12.5 mg/kg/injection, schedule: Q01DX009 (ip), vehicle: water
[2] = dose: 50.0 mg/kg/injection, schedule: Q01DX009 (ip), vehicle: water
[3] = dose: 100.0 mg/kg/injection, schedule: Q01DX009 (ip), vehicle: saline with Tween-80

Question: Which T/C (dose: 2.5 mg/kg/injection, schedule: Q01DX009 (ip), vehicle: saline) does the source give for `O=P1(N(CCCl)CCCl)NCCCO1` (centres undefined) here?
Answer: 102 % of control

Question: What about the T/C (dose: 5.0 mg/kg/injection, schedule: Q01DX009 (ip), vehicle: saline) of the same compound?
Answer: 100 % of control

Question: What about the T/C (dose: 6.25 mg/kg/injection, schedule: Q01DX017 (ip), vehicle: saline) of the same compound?
Answer: 110 % of control

Question: And the T/C (dose: 6.25 mg/kg/injection, schedule: Q02DX009 (ip), vehicle: saline)?
Answer: 107 % of control and 108 % of control

Question: And the T/C (dose: 10.0 mg/kg/injection, schedule: Q01DX005 (ip), vehicle: water)?
Answer: 100 % of control

Question: What about the T/C (dose: 10.0 mg/kg/injection, schedule: Q01DX009 (ip), vehicle: saline) of the same compound?
Answer: 102 % of control

Question: And the T/C (dose: 10.0 mg/kg/injection, schedule: Q01DX009 (ip), vehicle: water)?
Answer: 111 % of control

Question: What about the T/C (dose: 10.0 mg/kg/injection, schedule: Q04DX003 (ip), vehicle: saline) of the same compound?
Answer: 114 % of control

Question: What about the T/C (dose: 12.0 mg/kg/injection, schedule: Q01DX009 (ip), vehicle: saline) of the same compound?
Answer: 105 % of control

Question: What about the T/C [1] of the same compound?
Answer: 104 % of control

Question: What about the T/C (dose: 12.5 mg/kg/injection, schedule: Q02DX009 (ip), vehicle: saline) of the same compound?
Answer: 107 % of control

Question: What about the T/C (dose: 15.0 mg/kg/injection, schedule: Q04DX003 (ip), vehicle: saline) of the same compound?
Answer: 107 % of control

Question: What about the T/C (dose: 20.0 mg/kg/injection, schedule: Q01DX005 (ip), vehicle: water) of the same compound?
Answer: 111 % of control

Question: What about the T/C (dose: 20.0 mg/kg/injection, schedule: Q01DX009 (ip), vehicle: saline) of the same compound?
Answer: 112 % of control

Question: What about the T/C (dose: 20.0 mg/kg/injection, schedule: Q04DX003 (ip), vehicle: saline) of the same compound?
Answer: 120 % of control

Question: And the T/C (dose: 25.0 mg/kg/injection, schedule: Q01DX001 (ip), vehicle: saline)?
Answer: 103 % of control

Question: What about the T/C (dose: 25.0 mg/kg/injection, schedule: Q01DX009 (ip), vehicle: Klucel (hydroxypropylcellulose) (HPC)) of the same compound?
Answer: 107 % of control

Question: What about the T/C (dose: 25.0 mg/kg/injection, schedule: Q01DX009 (ip), vehicle: saline with Tween-80) of the same compound?
Answer: 112 % of control

Question: And the T/C (dose: 25.0 mg/kg/injection, schedule: Q01DX017 (ip), vehicle: saline)?
Answer: 150 % of control

Question: What about the T/C (dose: 25.0 mg/kg/injection, schedule: Q02DX009 (ip), vehicle: saline) of the same compound?
Answer: 114 % of control and 122 % of control and 123 % of control

Question: What about the T/C (dose: 25.0 mg/kg/injection, schedule: Q04DX003 (ip), vehicle: saline) of the same compound?
Answer: 119 % of control and 122 % of control

Question: And the T/C (dose: 25.0 mg/kg/injection, schedule: Q08DX002 (ip), vehicle: saline)?
Answer: 117 % of control

Question: And the T/C (dose: 30.0 mg/kg/injection, schedule: Q01DX009 (ip), vehicle: water)?
Answer: 161 % of control

Question: What about the T/C (dose: 30.0 mg/kg/injection, schedule: Q04DX003 (ip), vehicle: saline) of the same compound?
Answer: 114 % of control

Question: What about the T/C (dose: 38.9 mg/kg/injection, schedule: Q08DX002 (ip), vehicle: saline) of the same compound?
Answer: 116 % of control

Question: What about the T/C (dose: 40.0 mg/kg/injection, schedule: Q01DX005 (ip), vehicle: water) of the same compound?
Answer: 122 % of control

Question: What about the T/C (dose: 40.0 mg/kg/injection, schedule: Q01DX009 (ip), vehicle: water) of the same compound?
Answer: 172 % of control

Question: And the T/C (dose: 40.0 mg/kg/injection, schedule: Q04DX003 (ip), vehicle: saline)?
Answer: 124 % of control

Question: And the T/C (dose: 41.5 mg/kg/injection, schedule: Q04DX003 (ip), vehicle: saline)?
Answer: 120 % of control

Question: And the T/C [2]?
Answer: 159 % of control and 180 % of control

Question: And the T/C (dose: 50.0 mg/kg/injection, schedule: Q01DX017 (ip), vehicle: saline)?
Answer: 110 % of control

Question: And the T/C (dose: 50.0 mg/kg/injection, schedule: Q04DX003 (ip), vehicle: saline)?
Answer: 124 % of control

Question: What about the T/C (dose: 50.0 mg/kg/injection, schedule: Q04DX005 (ip), vehicle: saline) of the same compound?
Answer: 162 % of control

Question: And the T/C (dose: 60.0 mg/kg/injection, schedule: Q01DX005 (ip), vehicle: water)?
Answer: 169 % of control

Question: And the T/C (dose: 72.0 mg/kg/injection, schedule: Q01DX001 (ip), vehicle: saline)?
Answer: 110 % of control

Question: And the T/C (dose: 75.0 mg/kg/injection, schedule: Q01DX001 (ip), vehicle: Klucel (hydroxypropylcellulose) (HPC))?
Answer: 156 % of control

Question: And the T/C (dose: 80.0 mg/kg/injection, schedule: Q04DX003 (ip), vehicle: saline)?
Answer: 159 % of control

Question: And the T/C (dose: 93.3 mg/kg/injection, schedule: Q04DX003 (ip), vehicle: saline)?
Answer: 169 % of control

Question: What about the T/C (dose: 100.0 mg/kg/injection, schedule: Q01DX009 (ip), vehicle: Klucel (hydroxypropylcellulose) (HPC)) of the same compound?
Answer: 117 % of control

Question: And the T/C [3]?
Answer: 103 % of control and 117 % of control

Question: And the T/C (dose: 100.0 mg/kg/injection, schedule: Q02DX009 (ip), vehicle: saline)?
Answer: 91 % of control and 112 % of control

Question: What about the T/C (dose: 100.0 mg/kg/injection, schedule: Q04DX005 (ip), vehicle: saline) of the same compound?
Answer: 105 % of control

Question: And the T/C (dose: 100.0 mg/kg/injection, schedule: Q08DX003 (ip), vehicle: saline)?
Answer: 166 % of control

Question: What about the T/C (dose: 108.0 mg/kg/injection, schedule: Q08DX002 (ip), vehicle: saline) of the same compound?
Answer: 161 % of control

Question: What about the T/C (dose: 120.0 mg/kg/injection, schedule: Q01DX001 (ip), vehicle: saline) of the same compound?
Answer: 124 % of control

Question: And the T/C (dose: 120.0 mg/kg/injection, schedule: Q04DX003 (ip), vehicle: saline)?
Answer: 163 % of control

Question: And the T/C (dose: 140.0 mg/kg/injection, schedule: Q04DX003 (ip), vehicle: saline)?
Answer: 169 % of control

Question: What about the T/C (dose: 160.0 mg/kg/injection, schedule: Q04DX003 (ip), vehicle: saline) of the same compound?
Answer: 191 % of control

Question: And the T/C (dose: 180.0 mg/kg/injection, schedule: Q08DX002 (ip), vehicle: saline)?
Answer: 192 % of control

Question: What about the T/C (dose: 200.0 mg/kg/injection, schedule: Q01DX001 (ip), vehicle: water) of the same compound?
Answer: 121 % of control

Question: What about the T/C (dose: 200.0 mg/kg/injection, schedule: Q04DX003 (ip), vehicle: saline) of the same compound?
Answer: 111 % of control

Question: What about the T/C (dose: 210.0 mg/kg/injection, schedule: Q04DX003 (ip), vehicle: saline) of the same compound?
Answer: 205 % of control

Question: What about the T/C (dose: 300.0 mg/kg/injection, schedule: Q01DX001 (ip), vehicle: Klucel (hydroxypropylcellulose) (HPC)) of the same compound?
Answer: 100 % of control

Question: What about the T/C (dose: 300.0 mg/kg/injection, schedule: Q08DX002 (ip), vehicle: saline) of the same compound?
Answer: 117 % of control and 220 % of control and 226 % of control

Question: And the T/C (dose: 333.0 mg/kg/injection, schedule: Q01DX001 (ip), vehicle: saline)?
Answer: 155 % of control

Question: `C=CC1CN2CCC1CC2C(O)c1ccnc2ccc(OC)cc12` (centres undefined) (tested in a mixture with another compound) was tested. Which T/C (dose: 50.0 mg/kg/injection, schedule: Q01DX009 (ip), vehicle: saline with Tween-80) did it give?
Answer: 107 % of control

Question: And the T/C [3]?
Answer: 107 % of control

Question: What about the T/C (dose: 200.0 mg/kg/injection, schedule: Q01DX009 (ip), vehicle: saline with Tween-80) of the same compound?
Answer: 101 % of control

Question: For `C=CCCCC[P+](c1ccccc1)(c1ccccc1)c1ccccc1`, which T/C (dose: 1.5 mg/kg/injection, schedule: Q01DX009 (ip), vehicle: saline) is on record?
Answer: 102 % of control

Question: And the T/C (dose: 3.0 mg/kg/injection, schedule: Q01DX009 (ip), vehicle: saline)?
Answer: 92 % of control

Question: Which results are given for `COC(=O)C12OCC34C(CC5C(C)=C(O)C(=O)CC5(C)C3C(O)C1O)OC(=O)C(OC(=O)/C=C(\C)C(C)(C)O)C24` (centres undefined)?
Answer: T/C (dose: 0.05 mg/kg/injection, schedule: Q01DX009 (ip), vehicle: saline with Tween-80): 124 % of control; T/C (dose: 0.1 mg/kg/injection, schedule: Q01DX009 (ip), vehicle: saline with Tween-80): 150 % of control; T/C (dose: 0.2 mg/kg/injection, schedule: Q01DX009 (ip), vehicle: saline): 159 % of control; T/C (dose: 0.4 mg/kg/injection, schedule: Q01DX009 (ip), vehicle: saline with Tween-80): 152 % of control; T/C (dose: 0.4 mg/kg/injection, schedule: Q01DX009 (ip), vehicle: saline): 153 % of control; T/C (dose: 0.8 mg/kg/injection, schedule: Q01DX009 (ip), vehicle: saline with Tween-80): 172 % of control; T/C (dose: 1.6 mg/kg/injection, schedule: Q01DX009 (ip), vehicle: saline with Tween-80): 161 % of control

Question: With `CC(CCCN(CCCl)CCCl)Nc1ccnc2cc(Cl)ccc12` (centres undefined) as the compound, how does the T/C (dose: 0.25 mg/kg/injection, schedule: Q01DX009 (ip), vehicle: saline + alcohol) read?
Answer: 94 % of control

Question: What about the T/C (dose: 0.25 mg/kg/injection, schedule: Q04DX003 (ip), vehicle: saline + alcohol) of the same compound?
Answer: 100 % of control

Question: What about the T/C (dose: 0.5 mg/kg/injection, schedule: Q01DX009 (ip), vehicle: saline + alcohol) of the same compound?
Answer: 94 % of control

Question: And the T/C (dose: 0.5 mg/kg/injection, schedule: Q04DX003 (ip), vehicle: saline + alcohol)?
Answer: 106 % of control

Question: And the T/C (dose: 1.0 mg/kg/injection, schedule: Q01DX009 (ip), vehicle: saline + alcohol)?
Answer: 97 % of control

Question: And the T/C (dose: 1.0 mg/kg/injection, schedule: Q04DX003 (ip), vehicle: saline + alcohol)?
Answer: 112 % of control

Question: What about the T/C (dose: 2.0 mg/kg/injection, schedule: Q01DX009 (ip), vehicle: saline + alcohol) of the same compound?
Answer: 88 % of control

Question: And the T/C (dose: 2.0 mg/kg/injection, schedule: Q04DX003 (ip), vehicle: saline + alcohol)?
Answer: 118 % of control

Question: Which T/C (dose: 6.25 mg/kg/injection, schedule: Q01DX009 (ip), vehicle: water) does the source give for `CC1(O)C=CC(=O)C=C1` here?
Answer: 110 % of control

Question: And the T/C [1]?
Answer: 116 % of control

Question: And the T/C (dose: 25.0 mg/kg/injection, schedule: Q01DX009 (ip), vehicle: water)?
Answer: 120 % of control

Question: And the T/C [2]?
Answer: 114 % of control
